Data from ChEMBL document CHEMBL1144031, “[4-(Phenoxy)pyridin-3-yl]methylamines: a new class of selective noradrenaline reuptake inhibitors” (Bioorg Med Chem Lett, 2008).
Each block holds one compound with its values, some of them ahead of it.

Experiments:
[1] = target: Sodium-dependent noradrenaline transporter (Homo sapiens, UniProt P23975)
Description: Inhibition of [3H]Nisoxetine uptake in human noradrenaline transporter transfected HEK293 cells

[2] = target: Sodium-dependent serotonin transporter (Homo sapiens, UniProt P31645); assay: Inhibition of [3H]Citalopram uptake in human 5HTT transfected HEK293 cells; assay type: cell-based
[3] = target: Sodium-dependent dopamine transporter (Homo sapiens, UniProt Q01959); assay: Inhibition of [3H]WIN-35428 uptake in human DAT transfected HEK293 cells; assay type: cell-based
[4] = Dissociation constant, pKa of the compound; assay type: physicochemical
[5] = test system: P-gp; assay: Apparent permeability from basolateral to apical side of the dog MDCK cells expressing Pgp transporter; assay type: ADME, cell-based, Canis lupus familiaris; settings: MDCK-MDR1
[6] = target: Cytochrome P450 2D6 (Homo sapiens, UniProt P10635); assay: Inhibition of CYP2D6; assay type: ADME
[7] = test system: P-gp; assay: Apparent permeability from apical to basolateral side of the dog MDCK cells expressing P-gp transporter; assay type: ADME, cell-based, Canis lupus familiaris; settings: MDCK-MDR1
[8] = Lipophilicity, logD at pH 7.4; assay type: physicochemical; settings: buffer
[9] = Metabolic stability assessed as intrinsic clearance in human liver microsome; assay type: ADME; settings: liver microsomes
[10] = Binding affinity to calcium channel L-type at diltiazem site
[11] = target: Mu-type opioid receptor (Homo sapiens) (UniProt P35372); assay: Inhibition of mu opioid receptor at 10 uM
[12] = target: T1, 5-hydroxytryptamine receptor 2C (Homo sapiens) (UniProt P28335); assay: Inhibition of 5HT2C receptor at 10 uM
T1 sequence (whole entry): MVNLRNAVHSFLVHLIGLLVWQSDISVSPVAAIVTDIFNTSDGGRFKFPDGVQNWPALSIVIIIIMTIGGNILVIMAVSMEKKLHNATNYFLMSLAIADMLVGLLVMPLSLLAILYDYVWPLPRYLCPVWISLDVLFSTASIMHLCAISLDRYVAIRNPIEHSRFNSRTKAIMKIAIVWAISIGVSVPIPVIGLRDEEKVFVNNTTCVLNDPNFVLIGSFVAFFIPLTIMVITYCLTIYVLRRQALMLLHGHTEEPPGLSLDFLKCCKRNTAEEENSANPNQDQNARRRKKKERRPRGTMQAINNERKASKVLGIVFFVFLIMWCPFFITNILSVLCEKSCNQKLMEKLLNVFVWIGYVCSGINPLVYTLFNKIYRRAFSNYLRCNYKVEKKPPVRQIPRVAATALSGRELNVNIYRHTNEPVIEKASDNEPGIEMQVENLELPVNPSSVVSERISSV

[13] = Binding affinity to sodium channel site 2
[14] = Displacement of [3H]noradrenaline from rat noradrenaline transporter expressed in HEK293 cells; assay type: cell-based
[15] = test system: Rattus norvegicus; assay: Increase in noradrenaline level in interstitial fluid of conscious rat prefrontal cortex at 0.3 mg/kg, sc relative to baseline; assay type: functional; settings: route subcutaneous
[16] = Apparent permeability from apical to basolateral side of the human CaCO2 membrane; assay type: ADME, cell-based; settings: Caco-2
[17] = test system: Hepatocyte; assay: Metabolic stability assessed as intrinsic clearance in human hepatocytes; assay type: ADME, cell-based, Liver
[18] = Half life in human liver microsome; assay type: ADME; settings: liver microsomes
[19] = target: T2, Cytochrome P450 1A2 (Homo sapiens, UniProt P05177); assay: Inhibition of CYP1A2; assay type: ADME
T2 sequence (P05177 whole entry): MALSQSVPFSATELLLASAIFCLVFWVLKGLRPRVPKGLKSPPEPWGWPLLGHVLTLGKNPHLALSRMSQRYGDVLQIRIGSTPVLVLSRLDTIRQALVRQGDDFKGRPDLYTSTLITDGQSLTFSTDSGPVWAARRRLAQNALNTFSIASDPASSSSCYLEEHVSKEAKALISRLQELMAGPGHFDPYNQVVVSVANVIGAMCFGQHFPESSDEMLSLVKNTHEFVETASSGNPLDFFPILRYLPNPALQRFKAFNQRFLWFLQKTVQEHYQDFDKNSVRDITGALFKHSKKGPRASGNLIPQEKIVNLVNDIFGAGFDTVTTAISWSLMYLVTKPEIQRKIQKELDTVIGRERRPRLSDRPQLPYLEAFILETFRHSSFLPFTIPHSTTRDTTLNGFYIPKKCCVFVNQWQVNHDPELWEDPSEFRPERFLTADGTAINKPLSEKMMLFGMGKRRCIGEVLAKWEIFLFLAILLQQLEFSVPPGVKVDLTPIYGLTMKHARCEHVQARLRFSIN

[20] = target: Cytochrome P450 3A4 (Homo sapiens, UniProt P08684); assay: Inhibition of CYP3A4; assay type: ADME
[21] = Lipophilicity, logP of the compound; assay type: physicochemical; settings: octanol/water
[22] = target: Voltage-gated inwardly rectifying potassium channel KCNH2 (Homo sapiens, UniProt Q12809); assay: Displacement of [3H]dofetilide from human ERG channel
[23] = target: Kappa-type opioid receptor (Homo sapiens) (UniProt P41145); assay: Inhibition of kappa opioid receptor at 10 uM
[24] = Apparent permeability from basolateral to apical side of the human CaCO2 membrane; assay type: ADME, cell-based; settings: Caco-2

Sodium-dependent noradrenaline transporter, sequence (P23975 whole entry): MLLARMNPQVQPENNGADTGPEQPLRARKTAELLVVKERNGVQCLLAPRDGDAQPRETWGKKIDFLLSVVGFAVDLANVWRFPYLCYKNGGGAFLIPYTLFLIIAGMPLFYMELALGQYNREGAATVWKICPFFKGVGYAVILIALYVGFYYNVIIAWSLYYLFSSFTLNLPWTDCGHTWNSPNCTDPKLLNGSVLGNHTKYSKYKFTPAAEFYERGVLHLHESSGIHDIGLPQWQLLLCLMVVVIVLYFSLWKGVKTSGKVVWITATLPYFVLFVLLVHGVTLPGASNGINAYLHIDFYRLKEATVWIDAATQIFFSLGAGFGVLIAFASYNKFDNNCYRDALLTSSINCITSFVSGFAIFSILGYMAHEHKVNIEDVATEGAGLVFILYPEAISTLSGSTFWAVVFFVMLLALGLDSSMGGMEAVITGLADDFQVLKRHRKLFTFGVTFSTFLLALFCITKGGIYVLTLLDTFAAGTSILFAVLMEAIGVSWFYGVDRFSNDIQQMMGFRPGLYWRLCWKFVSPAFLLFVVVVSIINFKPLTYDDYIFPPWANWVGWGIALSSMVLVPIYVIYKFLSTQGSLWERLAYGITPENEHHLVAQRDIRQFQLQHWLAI
Sodium-dependent serotonin transporter, sequence (P31645 whole entry): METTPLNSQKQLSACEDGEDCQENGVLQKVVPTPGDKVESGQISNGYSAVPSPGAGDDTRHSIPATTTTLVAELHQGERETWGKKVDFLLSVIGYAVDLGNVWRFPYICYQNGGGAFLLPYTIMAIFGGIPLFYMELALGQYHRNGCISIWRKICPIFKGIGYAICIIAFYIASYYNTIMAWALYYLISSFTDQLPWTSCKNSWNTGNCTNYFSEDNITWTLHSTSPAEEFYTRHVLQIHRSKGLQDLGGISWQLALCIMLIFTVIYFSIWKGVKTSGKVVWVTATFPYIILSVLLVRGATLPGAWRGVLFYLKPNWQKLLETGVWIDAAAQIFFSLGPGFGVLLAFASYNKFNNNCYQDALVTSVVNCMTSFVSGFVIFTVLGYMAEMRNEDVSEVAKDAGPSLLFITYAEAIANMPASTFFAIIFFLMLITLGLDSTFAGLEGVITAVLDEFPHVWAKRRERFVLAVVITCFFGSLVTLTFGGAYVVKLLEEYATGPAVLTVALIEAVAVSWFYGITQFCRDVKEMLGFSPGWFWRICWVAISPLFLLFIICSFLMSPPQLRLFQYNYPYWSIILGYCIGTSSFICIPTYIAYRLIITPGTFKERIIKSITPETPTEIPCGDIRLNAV
Sodium-dependent dopamine transporter, sequence (Q01959 whole entry): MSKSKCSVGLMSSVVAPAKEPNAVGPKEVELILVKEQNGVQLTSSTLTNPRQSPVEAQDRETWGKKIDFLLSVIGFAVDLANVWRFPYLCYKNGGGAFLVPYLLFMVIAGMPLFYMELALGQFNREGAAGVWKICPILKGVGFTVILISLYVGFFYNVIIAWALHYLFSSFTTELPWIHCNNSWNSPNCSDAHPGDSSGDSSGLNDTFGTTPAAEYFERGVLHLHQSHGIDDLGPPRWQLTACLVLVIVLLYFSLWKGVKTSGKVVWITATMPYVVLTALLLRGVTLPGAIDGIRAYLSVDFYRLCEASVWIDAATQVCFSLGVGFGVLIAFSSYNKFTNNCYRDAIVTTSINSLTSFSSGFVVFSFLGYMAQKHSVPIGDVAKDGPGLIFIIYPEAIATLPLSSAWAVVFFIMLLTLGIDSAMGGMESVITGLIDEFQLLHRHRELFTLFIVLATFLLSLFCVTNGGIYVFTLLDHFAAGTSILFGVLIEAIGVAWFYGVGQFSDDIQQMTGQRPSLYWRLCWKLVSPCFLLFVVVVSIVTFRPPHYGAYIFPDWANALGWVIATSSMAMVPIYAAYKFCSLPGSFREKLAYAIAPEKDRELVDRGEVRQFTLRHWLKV
Cytochrome P450 2D6, sequence (P10635 whole entry): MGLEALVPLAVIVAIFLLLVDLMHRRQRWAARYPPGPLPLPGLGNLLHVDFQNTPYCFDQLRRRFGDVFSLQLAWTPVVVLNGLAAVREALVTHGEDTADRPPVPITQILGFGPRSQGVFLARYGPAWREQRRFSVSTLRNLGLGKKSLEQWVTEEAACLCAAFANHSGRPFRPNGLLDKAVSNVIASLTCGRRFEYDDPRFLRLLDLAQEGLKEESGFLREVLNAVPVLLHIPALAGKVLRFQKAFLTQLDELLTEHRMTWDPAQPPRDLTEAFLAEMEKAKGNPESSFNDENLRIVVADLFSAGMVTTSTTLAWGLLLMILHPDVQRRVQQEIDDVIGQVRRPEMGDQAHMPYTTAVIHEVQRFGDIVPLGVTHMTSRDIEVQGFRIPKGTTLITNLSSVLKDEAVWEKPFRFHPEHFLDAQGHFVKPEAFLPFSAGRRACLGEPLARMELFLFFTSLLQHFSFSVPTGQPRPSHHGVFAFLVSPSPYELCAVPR
Voltage-gated inwardly rectifying potassium channel KCNH2, sequence (Q12809 whole entry): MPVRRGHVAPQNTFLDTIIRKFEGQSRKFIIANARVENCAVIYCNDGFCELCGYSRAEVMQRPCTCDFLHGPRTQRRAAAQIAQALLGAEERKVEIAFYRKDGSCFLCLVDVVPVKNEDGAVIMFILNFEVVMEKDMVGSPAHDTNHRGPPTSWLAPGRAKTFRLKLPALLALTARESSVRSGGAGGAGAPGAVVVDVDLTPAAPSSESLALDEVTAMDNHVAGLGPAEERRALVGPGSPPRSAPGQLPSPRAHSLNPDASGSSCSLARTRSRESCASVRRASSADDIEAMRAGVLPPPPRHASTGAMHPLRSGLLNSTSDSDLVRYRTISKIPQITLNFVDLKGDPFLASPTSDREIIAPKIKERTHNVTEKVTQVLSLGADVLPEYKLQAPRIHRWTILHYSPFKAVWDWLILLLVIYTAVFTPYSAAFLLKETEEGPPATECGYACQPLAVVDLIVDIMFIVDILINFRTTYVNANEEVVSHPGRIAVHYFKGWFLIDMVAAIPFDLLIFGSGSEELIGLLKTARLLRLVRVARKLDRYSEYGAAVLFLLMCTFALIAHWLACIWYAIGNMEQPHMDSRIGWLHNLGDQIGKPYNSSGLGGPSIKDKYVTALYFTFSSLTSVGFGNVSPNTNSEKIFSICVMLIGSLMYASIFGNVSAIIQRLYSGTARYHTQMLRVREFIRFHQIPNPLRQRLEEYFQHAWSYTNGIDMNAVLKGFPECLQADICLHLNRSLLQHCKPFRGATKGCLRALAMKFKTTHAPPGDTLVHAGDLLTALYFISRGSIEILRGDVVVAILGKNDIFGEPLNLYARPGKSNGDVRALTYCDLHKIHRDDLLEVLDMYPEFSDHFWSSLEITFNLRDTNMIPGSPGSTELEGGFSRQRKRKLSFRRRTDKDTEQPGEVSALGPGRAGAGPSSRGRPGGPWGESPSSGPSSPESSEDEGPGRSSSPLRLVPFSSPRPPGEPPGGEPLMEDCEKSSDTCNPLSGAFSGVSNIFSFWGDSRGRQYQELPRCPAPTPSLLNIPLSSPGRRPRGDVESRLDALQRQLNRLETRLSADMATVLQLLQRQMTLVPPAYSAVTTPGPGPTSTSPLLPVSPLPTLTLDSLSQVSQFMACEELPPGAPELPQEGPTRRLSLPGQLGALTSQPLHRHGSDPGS
Cytochrome P450 3A4, sequence (P08684 whole entry): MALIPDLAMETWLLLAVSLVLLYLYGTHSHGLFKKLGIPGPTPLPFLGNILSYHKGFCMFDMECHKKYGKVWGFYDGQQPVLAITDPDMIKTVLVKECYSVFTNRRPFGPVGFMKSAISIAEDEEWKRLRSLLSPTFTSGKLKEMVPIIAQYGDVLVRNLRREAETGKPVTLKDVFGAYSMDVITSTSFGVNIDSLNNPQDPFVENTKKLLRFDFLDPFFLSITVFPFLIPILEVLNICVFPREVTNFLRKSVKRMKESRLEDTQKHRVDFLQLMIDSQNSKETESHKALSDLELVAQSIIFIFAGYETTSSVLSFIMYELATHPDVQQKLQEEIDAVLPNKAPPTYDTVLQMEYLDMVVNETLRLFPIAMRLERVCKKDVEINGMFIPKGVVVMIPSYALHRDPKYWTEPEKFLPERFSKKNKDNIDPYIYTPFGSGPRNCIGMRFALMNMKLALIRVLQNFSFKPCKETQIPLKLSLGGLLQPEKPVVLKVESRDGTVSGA
Mu-type opioid receptor (Homo sapiens), sequence (P35372 whole entry): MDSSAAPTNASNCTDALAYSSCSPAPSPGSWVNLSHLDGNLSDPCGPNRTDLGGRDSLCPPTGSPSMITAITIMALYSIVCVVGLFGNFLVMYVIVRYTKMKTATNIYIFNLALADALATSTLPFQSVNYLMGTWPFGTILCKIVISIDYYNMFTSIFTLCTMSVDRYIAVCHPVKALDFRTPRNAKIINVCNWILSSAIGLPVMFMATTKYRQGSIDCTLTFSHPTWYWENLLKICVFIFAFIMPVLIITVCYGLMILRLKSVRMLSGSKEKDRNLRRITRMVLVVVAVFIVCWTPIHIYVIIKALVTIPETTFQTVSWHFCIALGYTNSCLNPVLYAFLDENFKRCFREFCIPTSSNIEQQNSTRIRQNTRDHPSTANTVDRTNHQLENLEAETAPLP
Kappa-type opioid receptor (Homo sapiens), sequence (P41145 whole entry): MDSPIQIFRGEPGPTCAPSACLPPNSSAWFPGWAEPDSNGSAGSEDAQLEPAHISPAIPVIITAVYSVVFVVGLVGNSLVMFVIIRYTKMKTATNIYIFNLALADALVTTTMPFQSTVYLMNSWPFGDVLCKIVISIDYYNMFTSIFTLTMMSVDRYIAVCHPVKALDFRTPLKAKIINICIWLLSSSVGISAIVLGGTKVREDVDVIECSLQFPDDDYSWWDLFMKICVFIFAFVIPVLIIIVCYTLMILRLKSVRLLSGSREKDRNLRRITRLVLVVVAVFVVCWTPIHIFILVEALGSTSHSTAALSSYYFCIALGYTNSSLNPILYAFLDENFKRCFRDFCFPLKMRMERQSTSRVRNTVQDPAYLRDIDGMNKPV

Structure (SMILES): CNCc1cnc(C)cc1Oc1ccccc1OC
Ki [1]: 921 nM
Ki [2]: 265 nM
Ki [3]: 4800 nM

Structure (SMILES): CNCc1cnc(C)cc1Oc1ccccc1Cl
Ki [1]: 255 nM
Ki [2]: 88 nM
Ki [3]: 834 nM

Structure (SMILES): CNCc1cnc(C)cc1Oc1ccccc1C
Ki [1]: 951 nM
Ki [2]: 136 nM
Ki [3]: 1520 nM

Structure (SMILES): CSc1ccccc1Oc1cc(C)ncc1CN(C)C
Ki [1]: 58 nM
Ki [2]: 384 nM
Ki [3]: 1930 nM

Structure (SMILES): CCCc1ccccc1Oc1cc(C)ncc1CN(C)C
Ki [1]: 159 nM
Ki [2]: 2820 nM
Ki [3]: 2250 nM

Structure (SMILES): CNCc1cnc(C)cc1Oc1ccccc1Oc1ccccc1
Ki [10]: 1200 nM
pKa [4]: 4.4
Ki [1]: 10 nM
inhibition [11]: > 80%
Papp B→A [5]: 41 ×10⁻⁶ cm/s
inhibition [12]: > 80%
IC50 [6]: 3400 nM
Ki [13]: 3400 nM
IC50 [14]: 2.5 nM
Ki [2]: 823 nM
Activity [15]: 400%
Papp A→B [7]: 25 ×10⁻⁶ cm/s
Papp A→B [16]: 11 ×10⁻⁶ cm/s
CL [17]: 8 µL/min/mg
half-life [18]: > 2 h
logD [8]: 1.6
IC50 [19]: > 3000 nM
IC50 [20]: > 3000 nM
Ki [3]: 1910 nM
logP [21]: 4.4
Ki [22]: 5800 nM
inhibition [23]: > 80%
microsomal CLint [9]: < 7 µL/min/mg
Papp B→A [24]: 19 ×10⁻⁶ cm/s

Structure (SMILES): CCCc1ccccc1Oc1cc(C)ncc1CNC
Ki [1]: 438 nM
Ki [2]: 821 nM
Ki [3]: 1980 nM

Structure (SMILES): CCc1cc(Cl)ccc1Oc1cc(C)ncc1CNC
Ki [1]: 74 nM
Ki [2]: 18 nM
Ki [3]: 4350 nM

Structure (SMILES): CNCc1cnc(C)cc1Oc1ccccc1SC
Ki [1]: 232 nM
Ki [2]: 133 nM
Ki [3]: 1750 nM

Structure (SMILES): CCc1ccccc1Oc1cc(C)ncc1CN(C)C
Ki [1]: 27 nM
Ki [2]: 279 nM
logD [8]: 2.1
Ki [3]: 2660 nM
IC50 [22]: > 20000 nM
microsomal CLint [9]: < 7 µL/min/mg

Continued by falling Ki [2], values first:

Ki [2]: 4750 nM
Ki [3]: 2150 nM
Structure (SMILES): CCOc1ccccc1Oc1cc(C)ncc1CN(C)C

pKa [4]: 4.4
Ki [1]: 10 nM
Papp B→A [5]: 36 ×10⁻⁶ cm/s
IC50 [6]: 610 nM
Ki [2]: 4060 nM
Papp A→B [7]: 41 ×10⁻⁶ cm/s
logD [8]: 2.4
Ki [3]: 2640 nM
microsomal CLint [9]: 29 µL/min/mg
Structure (SMILES): Cc1cc(Oc2ccccc2Oc2ccccc2)c(CN(C)C)cn1

Ki [1]: 82 nM
Ki [2]: 1980 nM
Ki [3]: 2130 nM
Structure (SMILES): CNCc1cnc(C)cc1Oc1ccccc1C(C)C

Ki [1]: 13 nM
Papp B→A [5]: 39 ×10⁻⁶ cm/s
Ki [2]: 1470 nM
Papp A→B [7]: 38 ×10⁻⁶ cm/s
logD [8]: 2.5
Ki [3]: 2880 nM
microsomal CLint [9]: 17 µL/min/mg
Structure (SMILES): Cc1cc(Oc2ccccc2C(C)C)c(CN(C)C)cn1

Ki [1]: 296 nM
Ki [2]: 1420 nM
Ki [3]: 4060 nM
Structure (SMILES): COc1ccccc1Oc1cc(C)ncc1CN(C)C

Ki [1]: 366 nM
Ki [2]: 440 nM
Ki [3]: 2280 nM
Structure (SMILES): CCc1ccccc1Oc1cc(C)ncc1CNC

Ki [1]: 131 nM
Ki [2]: 242 nM
Ki [3]: 1160 nM
Structure (SMILES): Cc1cc(Oc2ccccc2Cl)c(CN(C)C)cn1

Ki [1]: 194 nM
Ki [2]: 235 nM
Ki [3]: 1410 nM
Structure (SMILES): Cc1cc(Oc2ccccc2C)c(CN(C)C)cn1

Ki [1]: 461 nM
Ki [2]: 218 nM
Ki [3]: 2390 nM
Structure (SMILES): CCOc1ccccc1Oc1cc(C)ncc1CNC

Ki [1]: 22 nM
Ki [2]: 13 nM
Structure (SMILES): CCc1cc(Cl)ccc1Oc1cc(C)ncc1CN(C)C
